Legend:
[1] = Solubility test (dissolution method); settings: for Solubility (dissolution method) Water: mixed at 1%, 3%, 5%, 10%, 20% or more
Text: The solubility evaluation by the dissolution method requires complicated operations and a large amount of test sample. Therefore, this test is not suitable for screening. However, the solubility of each compound can be more accurately evaluated.

[2] = Solubility test (film-forming method); settings: for Solubility (film-forming method) Water: solvent dropped on film on glass plate
Description: Each compound was applied on a glass plate and the glass plate was leaned against the wall. Each solvent shown in Table 5 was dropped (5 to 6 drops) on the glass plate with a pasteur pipette. The glass plate was visually observed after the dropped solvent was dried, the surface was optionally rubbed with a spatula, and the solubility (film-forming method) was evaluated according to the criteria shown in Table 4.

Compound | Solubility (dissolution method) Toluene [1] | Solubility (dissolution method) THF [1] | Solubility (film-forming method) Methanol [2] | Solubility (film-forming method) Water [2] | other results
C=C(C)C(=O)[O-].C=CCOCC(=C)C(=O)[O-].[CH3][Sn+2][CH3] [(CH3)2Sn(AMA)1(MAA)1] | ◯◯ (Become uniform and transparent at a compound concentration of 20% or more) | – | – | – | –
C=CCOCC(=C)C(=O)[O-].C=CCOCC(=C)C(=O)[O-].[CH3][Sn+2][CH3] [(CH3)2Sn(AMA)2] | ◯◯ (Become uniform and transparent at a compound concentration of 20% or more) | – | – | – | –
C=CCOCC(=C)C(=O)[O-].C=CCOCC(=C)C(=O)[O-].CC(C)[O][Ti+2][O]C(C)C [(i-C3H7O)2Ti(AMA)2] | ◯◯ (Become uniform and transparent at a compound concentration of 20% or more) | ◯◯ (Become uniform and transparent at a compound concentration of 20% or more) | X-Δ | – | Solubility (dissolution method) Acetone [1]: ◯◯ (Become uniform and transparent at a compound concentration of 20% or more); Solubility (dissolution method) Acetonitrile [1]: ◯◯ (Become uniform and transparent at a compound concentration of 20% or more); Solubility (dissolution method) Ethyl acetate [1]: ◯◯ (Become uniform and transparent at a compound concentration of 20% or more); Solubility (dissolution method) Methanol [1]: ◯◯ (Become uniform and transparent at a compound concentration of 20% or more); Solubility (dissolution method) Water [1]: X (Not become uniform and transparent even at a compound concentration of 1%); Solubility (film-forming method) Acetone [2]: X-Δ; Solubility (film-forming method) Acetonitrile [2]: X-Δ; Solubility (film-forming method) Ethyl acetate [2]: X-Δ; Solubility (film-forming method) THF [2]: X-Δ; Solubility (film-forming method) Toluene [2]: X-Δ
C=CCOCC(=C)C(=O)[O-].C=CCOCC(=C)C(=O)[O-].CCC[O][Zr+2][O]CCC [(n-C3H7O)2Zr(AMA)2] | ◯◯ (Become uniform and transparent at a compound concentration of 20% or more) | ◯◯ (Become uniform and transparent at a compound concentration of 20% or more) | X-Δ | – | Solubility (dissolution method) Acetone [1]: ◯◯ (Become uniform and transparent at a compound concentration of 20% or more); Solubility (dissolution method) Acetonitrile [1]: X (Not become uniform and transparent even at a compound concentration of 1%); Solubility (dissolution method) Ethyl acetate [1]: ◯ (Become uniform and transparent at a compound concentration of 10%); Solubility (dissolution method) Methanol [1]: X (Not become uniform and transparent even at a compound concentration of 1%); Solubility (dissolution method) Water [1]: X (Not become uniform and transparent even at a compound concentration of 1%); Solubility (film-forming method) Acetone [2]: X-Δ; Solubility (film-forming method) Acetonitrile [2]: X-Δ; Solubility (film-forming method) Ethyl acetate [2]: X-Δ; Solubility (film-forming method) THF [2]: X-Δ; Solubility (film-forming method) Toluene [2]: X-Δ
C=CCOCC(=C)C(=O)[O-].C=CCOCC(=C)C(=O)[O-].C=CCOCC(=C)C(=O)[O-].[Au+3] [Au(AMA)3] | – | – | – | – | Solubility (film-forming method) Toluene [2]: X-Δ
C=CCOCC(=C)C(=O)[O-].C=CCOCC(=C)C(=O)[O-].C=CCOCC(=C)C(=O)[O-].[Bi+3] [Bi(AMA)3] | – | – | – | X-Δ | –
C=CCOCC(=C)C(=O)[O-].C=CCOCC(=C)C(=O)[O-].[Co+2] [Co(AMA)2] | ◯◯ (Become uniform and transparent at a compound concentration of 20% or more) | – | X-Δ | – | Solubility (film-forming method) Acetonitrile [2]: X-Δ
C=CCOCC(=C)C(=O)[O-].C=CCOCC(=C)C(=O)[O-].C=CCOCC(=C)C(=O)[O-].[Cr+3] [Cr(AMA)3] | ◯◯ (Become uniform and transparent at a compound concentration of 20% or more) | – | X-Δ | – | –
C=CCOCC(=C)C(=O)[O-].C=CCOCC(=C)C(=O)[O-].[Cu+2] [Cu(AMA)2] | – | ◯◯ (Become uniform and transparent at a compound concentration of 20% or more) | – | – | –
C=CCOCC(=C)C(=O)[O-].C=CCOCC(=C)C(=O)[O-].C=CCOCC(=C)C(=O)[O-].[Er+3] [Er(AMA)3] | ◯ (Become uniform and transparent at a compound concentration of 10%) | ◯◯ (Become uniform and transparent at a compound concentration of 20% or more) | – | X-Δ | –
C=CCOCC(=C)C(=O)[O-].C=CCOCC(=C)C(=O)[O-].C=CCOCC(=C)C(=O)[O-].[Eu+3] [Eu(AMA)3] | ◯ (Become uniform and transparent at a compound concentration of 10%) | ◯◯ (Become uniform and transparent at a compound concentration of 20% or more) | – | – | –
C=CCOCC(=C)C(=O)[O-].C=CCOCC(=C)C(=O)[O-].C=CCOCC(=C)C(=O)[O-].[Fe+3] [Fe(AMA)3] | ◯◯ (Become uniform and transparent at a compound concentration of 20% or more) | – | – | X-Δ | –
C=C(C)C(=O)[O-].C=CCOCC(=C)C(=O)[O-].C=CCOCC(=C)C(=O)[O-].[In+3] [In(AMA)2(MAA)1] | ◯◯ (Become uniform and transparent at a compound concentration of 20% or more) | – | X-Δ | – | –
C=CCOCC(=C)C(=O)[O-].C=CCOCC(=C)C(=O)[O-].C=CCOCC(=C)C(=O)[O-].[In+3] [In(AMA)3] | – | ◯◯ (Become uniform and transparent at a compound concentration of 20% or more) | X-Δ | – | Solubility (film-forming method) Acetone [2]: X-Δ; Solubility (film-forming method) Acetonitrile [2]: X-Δ; Solubility (film-forming method) Ethyl acetate [2]: X-Δ
C=CCOCC(=C)C(=O)[O-].C=CCOCC(=C)C(=O)[O-].C=CCOCC(=C)C(=O)[O-].[La+3] [La(AMA)3] | ◯ (Become uniform and transparent at a compound concentration of 10%) | ◯◯ (Become uniform and transparent at a compound concentration of 20% or more) | – | X-Δ | –
C=CCOCC(=C)C(=O)[O-].C=CCOCC(=C)C(=O)[O-].[Mn+2] [Mn(AMA)2] | ◯◯ (Become uniform and transparent at a compound concentration of 20% or more) | – | – | X-Δ | –
C=C(C)C(=O)[O-].C=CCOCC(=C)C(=O)[O-].[Ni+2] [Ni(AMA)1(MAA)1] | ◯◯ (Become uniform and transparent at a compound concentration of 20% or more) | – | – | – | –
C=C(C)COCC(=C)C(=O)[O-].C=C(C)COCC(=C)C(=O)[O-].[Zn+2] [Zn(MAMA)2] | ◯◯ (Become uniform and transparent at a compound concentration of 20% or more) | – | – | X-Δ | –

— patent publication US9499466B2, “Diene-based carboxylate anion and salt thereof, and polymerizable or curable composition thereof” (NIPPON SHOKUBAI CO., LTD., priority 2010, dated 2016)
